Source: ChEMBL document CHEMBL1137031, “Synthesis and antibacterial activity of C-6 carbamate ketolides, a novel series of orally active ketolide antibiotics” (2004)
≈ marks a conversion by molar mass, not a printed value.

Key:
Staphylococcus aureus [1] = assay: Minimum inhibitory concentration against Staphylococcus aureus OC4172 in presence of mouse serum; assay type: functional
[2] = tested on: Staphylococcus haemolyticus; assay: Minimum inhibitory concentration against Staphylococcus haemolyticus OC4545
Haemophilus influenzae = assay: Minimum inhibitory concentration against Haemophilus influenzae OC4482
[3] = tested on: Staphylococcus haemolyticus; assay: Minimum inhibitory concentration against Staphylococcus haemolyticus OC3882
Streptococcus pneumoniae [4] = assay: Minimum inhibitory concentration against Streptococcus pneumoniae OC4421
Streptococcus pneumoniae [5] = assay: Minimum inhibitory concentration against Streptococcus pneumoniae OC4051
Staphylococcus aureus [6] = assay: Minimum inhibitory concentration against Staphylococcus aureus OC4172; assay type: functional
Streptococcus pneumoniae [7] = assay: Minimum inhibitory concentration against Streptococcus pneumoniae OC9132
Mus musculus [8] = assay: Effective dose against Staphylococcus aureus infected murine was tested after subcutaneous injection; assay type: functional; conditions: sc
Mus musculus [9] = species on record: Mus musculus; assay: Effective dose against Staphylococcus aureus infected murine was tested after peroral injection; assay type: functional
Mus musculus [10] = assay: Percent survival of Staphylococcus aureus infected murine was tested after subcutaneous injection of 10 mg/kg dose; assay type: functional; conditions: sc
Mus musculus [11] = assay: Percent survival of Staphylococcus aureus infected murine was tested after peroral injection of 20 mg/kg dose; assay type: functional; conditions: route oral

Row | SMILES | MIC (Staphylococcus aureus [1]) [µg/mL] | MIC [2] [µg/mL] | MIC (Haemophilus influenzae) [µg/mL] | MIC [3] [µg/mL] | MIC (Streptococcus pneumoniae [4]) [µg/mL] | MIC (Streptococcus pneumoniae [5]) [µg/mL] | MIC (Staphylococcus aureus [6]) [µg/mL] | MIC (Streptococcus pneumoniae [7]) [µg/mL] | ED50 (Mus musculus [8]) [mg/kg] | ED50 (Mus musculus [9]) [mg/kg] | survival at 10 mg/kg (Mus musculus [10]) [%] | survival at 20 mg/kg (Mus musculus [11]) [%]
1 | CC[C@H]1OC(=O)C(C)C(=O)[C@H](C)[C@@H](O[C@@H]2O[C@H](C)C[C@H](N(C)C)[C@H]2O)[C@](C)(OC(=O)Nc2ccccc2)C[C@@H](C)C(=O)[C@H](C)[C@H]2NC(=O)O[C@@]21C (stereo partly specified) | 1 | > 16 | 8 (≈ 11.1 µM) | > 16 | 0.06 (≈ 0.0836 µM) | 8 (≈ 11.1 µM) | 2 (≈ 2.79 µM) | 0.03 (≈ 0.0418 µM) |  |  |  | 
2 | CC[C@H]1OC(=O)C(C)C(=O)[C@H](C)[C@@H](O[C@@H]2O[C@H](C)C[C@H](N(C)C)[C@H]2O)[C@](C)(OC(=O)NCCc2ccccc2)C[C@@H](C)C(=O)[C@H](C)[C@H]2NC(=O)O[C@@]21C (stereo partly specified) | 2 | > 16 | 8 (≈ 10.7 µM) | 4 (≈ 5.36 µM) | 0.12 (≈ 0.161 µM) | 2 (≈ 2.68 µM) | 1 (≈ 1.34 µM) | 0.25 (≈ 0.335 µM) |  |  |  | 
3 | CC[C@H]1OC(=O)C(C)C(=O)[C@H](C)[C@@H](O[C@@H]2O[C@H](C)C[C@H](N(C)C)[C@H]2O)[C@](C)(OC(=O)N/C=C/c2ccccc2)C[C@@H](C)C(=O)[C@H](C)[C@H]2NC(=O)O[C@@]21C (stereo partly specified) | 2 | > 16 | 4 (≈ 5.38 µM) | 4 (≈ 5.38 µM) | 0.06 (≈ 0.0807 µM) | 0.5 (≈ 0.672 µM) | 0.25 (≈ 0.336 µM) | 0.06 (≈ 0.0807 µM) |  |  |  | 
4 | CC[C@H]1OC(=O)[C@H](C)[C@@H](O[C@H]2C[C@@](C)(OC)[C@@H](O)[C@H](C)O2)[C@H](C)[C@@H](O[C@@H]2O[C@H](C)C[C@H](N(C)C)[C@H]2O)[C@](C)(O)C[C@@H](C)C(=O)[C@H](C)[C@@H](O)[C@]1(C)O [ERYTHROMYCIN] | 0.06 | > 16 | 4 (≈ 5.45 µM) | > 16 | 4 (≈ 5.45 µM) | > 16 | 0.5 (≈ 0.681 µM) | 0.06 (≈ 0.0818 µM) |  |  |  | 
5 | CC[C@H]1OC(=O)C(C)C(=O)[C@H](C)[C@@H](O[C@@H]2O[C@H](C)C[C@H](N(C)C)[C@H]2O)[C@](C)(OC(=O)N/C=C/c2ccc(-c3cnccn3)cc2)C[C@@H](C)C(=O)[C@H](C)[C@H]2NC(=O)O[C@@]21C (stereo partly specified) | 0.25 | > 16 | 4 (≈ 4.87 µM) | 0.25 (≈ 0.304 µM) | 0.12 (≈ 0.146 µM) | 0.06 (≈ 0.073 µM) | 0.12 (≈ 0.146 µM) | 0.03 (≈ 0.0365 µM) | 4.8 | 17 | 100 | 62
6 | CC[C@H]1OC(=O)C(C)C(=O)[C@H](C)[C@@H](O[C@@H]2O[C@H](C)C[C@H](N(C)C)[C@H]2O)[C@](C)(OC(=O)N/C=C/c2ccc3ccccc3n2)C[C@@H](C)C(=O)[C@H](C)[C@H]2NC(=O)O[C@@]21C (stereo partly specified) | 0.5 | > 16 | 4 (≈ 5.03 µM) | 0.25 (≈ 0.314 µM) | 0.06 (≈ 0.0755 µM) | 0.03 (≈ 0.0377 µM) | 0.25 (≈ 0.314 µM) | ≤ 0.01 |  |  | 75 | 25
7 | CC[C@H]1OC(=O)C(C)C(=O)[C@H](C)[C@@H](O[C@@H]2O[C@H](C)C[C@H](N(C)C)[C@H]2O)[C@](C)(OC(=O)N/C=C/c2ccc(-c3ncccn3)cc2)C[C@@H](C)C(=O)[C@H](C)[C@H]2NC(=O)O[C@@]21C (stereo partly specified) | 0.25 | > 16 | 4 (≈ 4.87 µM) | 0.12 (≈ 0.146 µM) | 0.06 (≈ 0.073 µM) | 0.06 (≈ 0.073 µM) | 0.12 (≈ 0.146 µM) | 0.03 (≈ 0.0365 µM) | 1.8 | 15 | 100 | 40
8 | CC[C@H]1OC(=O)C(C)C(=O)[C@H](C)[C@@H](O[C@@H]2O[C@H](C)C[C@H](N(C)C)[C@H]2O)[C@](C)(OC(=O)N/C=C/c2ccc3cccnc3c2)C[C@@H](C)C(=O)[C@H](C)[C@H]2NC(=O)O[C@@]21C (stereo partly specified) | 0.5 | > 16 | 2 (≈ 2.52 µM) | 0.25 (≈ 0.314 µM) | 0.03 (≈ 0.0377 µM) | 0.03 (≈ 0.0377 µM) | 0.12 (≈ 0.151 µM) | ≤ 0.01 |  |  | 40 | 0
9 | CC[C@H]1OC(=O)C(C)C(=O)[C@H](C)[C@@H](O[C@@H]2O[C@H](C)C[C@H](N(C)C)[C@H]2O)[C@](C)(OC(=O)N/C=C/c2ccc(-n3cccn3)cc2)C[C@@H](C)C(=O)[C@H](C)[C@H]2NC(=O)O[C@@]21C (stereo partly specified) | 0.25 | > 16 | 4 (≈ 4.94 µM) | 0.12 (≈ 0.148 µM) | 0.06 (≈ 0.0741 µM) | 0.06 (≈ 0.0741 µM) | 0.12 (≈ 0.148 µM) | 0.03 (≈ 0.037 µM) | 7.1 | > 30 | 80 | 60
10 | CC[C@H]1OC(=O)C(C)C(=O)[C@H](C)[C@@H](O[C@@H]2O[C@H](C)C[C@H](N(C)C)[C@H]2O)[C@](C)(OC(=O)N/C=C/c2ccc(-c3cccnc3)cc2)C[C@@H](C)C(=O)[C@H](C)[C@H]2NC(=O)O[C@@]21C (stereo partly specified) | 1 | > 16 | 4 (≈ 4.87 µM) | 1 (≈ 1.22 µM) | 0.25 (≈ 0.305 µM) | 0.12 (≈ 0.146 µM) | 0.25 (≈ 0.305 µM) | 0.03 (≈ 0.0365 µM) |  |  |  | 
11 | CC[C@H]1OC(=O)C(C)C(=O)[C@H](C)[C@@H](O[C@@H]2O[C@H](C)C[C@H](N(C)C)[C@H]2O)[C@](C)(OC(=O)NCCCc2ccccc2)C[C@@H](C)C(=O)[C@H](C)[C@H]2NC(=O)O[C@@]21C (stereo partly specified) | 8 | > 16 | 16 (≈ 21.1 µM) | 2 (≈ 2.63 µM) | 0.12 (≈ 0.158 µM) | 1 (≈ 1.32 µM) | 2 (≈ 2.63 µM) | 0.06 (≈ 0.079 µM) |  |  |  | 
12 | CC[C@H]1OC(=O)C(C)C(=O)[C@H](C)[C@@H](O[C@@H]2O[C@H](C)C[C@H](N(C)C)[C@H]2O)[C@](C)(OC(=O)N/C=C/c2ccc(-c3ccncc3)cc2)C[C@@H](C)C(=O)[C@H](C)[C@H]2NC(=O)O[C@@]21C (stereo partly specified) | 2 | > 16 | 8 (≈ 9.74 µM) | 2 (≈ 2.44 µM) | 0.12 (≈ 0.146 µM) | 0.5 (≈ 0.609 µM) | 0.5 (≈ 0.609 µM) | 0.03 (≈ 0.0365 µM) |  |  |  | 
13 | CC[C@H]1OC(=O)C(C)C(=O)[C@H](C)[C@@H](O[C@@H]2O[C@H](C)C[C@H](N(C)C)[C@H]2O)[C@](C)(OC(N)=O)C[C@@H](C)C(=O)[C@H](C)[C@H]2NC(=O)O[C@@]21C (stereo partly specified) | 1 | > 16 | 2 (≈ 3.12 µM) | > 16 | 2 (≈ 3.12 µM) | > 16 | 4 (≈ 6.23 µM) | 2 (≈ 3.12 µM) |  |  |  | 
14 | CC[C@H]1OC(=O)C(C)C(=O)[C@H](C)[C@@H](O[C@@H]2O[C@H](C)C[C@H](N(C)C)[C@H]2O)[C@](C)(OC(=O)NCc2ccccc2)C[C@@H](C)C(=O)[C@H](C)[C@H]2NC(=O)O[C@@]21C (stereo partly specified) | 8 | > 16 | 16 (≈ 21.9 µM) | > 16 | 0.25 (≈ 0.342 µM) | 8 (≈ 10.9 µM) | 4 (≈ 5.47 µM) | 1 (≈ 1.37 µM) |  |  |  | 
15 | CC[C@H]1OC(=O)C(C)C(=O)[C@H](C)[C@@H](O[C@@H]2O[C@H](C)C[C@H](N(C)C)[C@H]2O)[C@](C)(OC(=O)N/C=C/c2ccc(-c3ccccc3)cc2)C[C@@H](C)C(=O)[C@H](C)[C@H]2NC(=O)O[C@@]21C (stereo partly specified) | 2 | > 16 | 8 (≈ 9.76 µM) | 1 (≈ 1.22 µM) | 0.25 (≈ 0.305 µM) | 0.5 (≈ 0.61 µM) | 0.5 (≈ 0.61 µM) | 0.06 (≈ 0.0732 µM) |  |  |  | 
16 | CC[C@H]1OC(=O)[C@H](C)C(=O)[C@H](C)[C@@H](O[C@@H]2O[C@H](C)C[C@H](N(C)C)[C@H]2O)[C@](C)(OC)C[C@@H](C)C(=O)[C@H](C)[C@H]2N(CCCCn3cnc(-c4cccnc4)c3)C(=O)O[C@]12C [TELITHROMYCIN] | 0.5 | > 16 | 2 (≈ 2.46 µM) | 0.25 (≈ 0.308 µM) | 0.12 (≈ 0.148 µM) | 0.06 (≈ 0.0739 µM) | 0.12 (≈ 0.148 µM) | ≤ 0.01 | 4.4 | 15 |  | 
17 | CC[C@H]1OC(=O)C(C)C(=O)[C@H](C)[C@@H](O[C@@H]2O[C@H](C)C[C@H](N(C)C)[C@H]2O)[C@](C)(OC(=O)N/C=C/c2ccc(-c3ccccn3)cc2)C[C@@H](C)C(=O)[C@H](C)[C@H]2NC(=O)O[C@@]21C (stereo partly specified) | 0.5 | > 16 | 4 (≈ 4.87 µM) | 0.12 (≈ 0.146 µM) | 0.06 (≈ 0.0731 µM) | 0.06 (≈ 0.0731 µM) | 0.12 (≈ 0.146 µM) | 0.03 (≈ 0.0365 µM) |  |  | 80 | 20
18 | CC[C@H]1OC(=O)C(C)C(=O)[C@H](C)[C@@H](O[C@@H]2O[C@H](C)C[C@H](N(C)C)[C@H]2O)[C@](C)(OC(=O)N/C=C/c2ccc(-n3ccnc3)cc2)C[C@@H](C)C(=O)[C@H](C)[C@H]2NC(=O)O[C@@]21C (stereo partly specified) | 0.25 | > 16 | 4 (≈ 4.94 µM) | 1 (≈ 1.23 µM) | 0.25 (≈ 0.309 µM) | 0.12 (≈ 0.148 µM) | 0.12 (≈ 0.148 µM) | ≤ 0.01 |  |  | 60 | 0
